# Source: patent US11357752B2, “Carolacton and derivatives thereof for use in the treatment of cell proliferation disorders” (Helmholtz-Zentrum für Infektionsforschung GmbH, priority 2017, dated 2022)
# Read-outs that look alike come from different tables or passages of the source.
# Columns and labels:
# S. pneumoniae TIGR4ΔfoID = experiment: Planktonic growth of S. pneumoniae foID deletion mutant; format: cell-based, Streptococcus pneumoniae; conditions: 0.25 μg/ml carolacton
# Procedure: (§1) FIG. 4. Carolacton effects on S. pneumoniae TIGR4 and foID deletion, complementation and fhs deletion mutants. (A) Growth inhibition of planktonic cultures of S. pneumoniae TIGR4 wild type, ΔfoID deletion mutant and controls in THBY. Carolacton (caro) (0.25 μg/ml) was added at an optical density of 600 nm (OD600) of 0.15. (B) Planktonic growth of the S. pneumoniae TIGR4 wild type and the TIGR4Δfhs mutant in THBY. Cultures were treated with 0.25 μg/ml carolacton (OD600 0.15).
# (§2) The Streptococcus mutans and Streptococcus pneumoniae strains used herein are UA159 and TIGR4, respectively. S. pneumoniae TIGR4 was routinely grown on Columbia blood agar plates (BD Biosciences) as described previously (Donner et. al, 2016). Streptococci were grown in Todd-Hewitt-Broth +1% (w/v) yeast extract (THBY, BD Biosciences)) at 37° C. and 5% CO2. The E. coli ToIC strain used in carolacton-resistant mutant development is an antibiotic-sensitive E. coli strain without its outer membrane channel protein ToIC. E. coli DH1OB or DH5α strain was used for gene cloning and E. coli BL21 (DE3) was used for protein expression. The protein expression plasmid pHis-TEV (Liu et al., 2009) was used for cloning and expression of all different foID gene orthologues studied herein.
# HUVEC cells = experiment: CellTiter-Glo luminescent cell viability assay; format: cell-based, human; conditions: for IC50: Homo sapiens, HUVEC
# Procedure: (§3) To evaluate the effects of one compound on 7 cell lines with a CellTiter-Glo Luminescent Cell Viability Assay. Cells were treated with compounds for 72 hours at 37° C./5% CO2 incubator. Compound stock concentration was 20 mM, concentrations to be assayed 100\50\15\10.5\0.1\0.05\0.01\0.005 pM. • i) Materials and Reagents
# (§4) a) Cells in log-phase are collected and counted. Cell suspensions are added to each well of 384-w plate at a suitable density. The margin wells are filled with PBS.
# (§5) b) Test compound at various concentrations are added in duplicates
# (§6) c) The cells were incubated for 72 h in 370/5% CO 2 incubator.
# (§7) d) After incubation, CellTiter-Glo® Reagent is added to each test well and shack for 2 minutes on an orbital shaker.
# (§8) e) The plates are shortly centrifuged at 90×g for 30 s and incubated at room temperature for additional 10 minutes to stabilize the luminescent signal.
# (§9) f) Luminescence signals are detected on PHERAstar Plus.
# (§10) g) Data is collected in Microsoft excel forms and analyzed with GraphPad Prism v.6 software. • iii) Data analysis
# (§11) The potential effect of the testing compounds an cell proliferation was calculated by the formula below: Inhibition %=[…]
# (§12) Since hsMTHFD2 is expressed in human mitochondria and overexpressed in many tumor cells we next aimed to evaluate its potential as an anticancer compound. To this end IC50 values for carolacton were determined for six different cancer cell lines as well as HUVEC cells as primary non-tumor cells. The CellTiter-Glo luminescent cell viability assay (Promega) was used on triplicate cultures grown for three days. Each cell line was tested in three independent experiments (performed at different times and by different experimentators): First, using natural carolacton purified from culture supernatants of Sorangium cellulosum and solved in methanol; second, using carolacton synthesized de novo according to Schmidt et al. 2012 and solved in DMSO; and third, using synthetic carolacton synthesized de novo according to Schmidt et al. 2012 and solved in methanol.
# U-937 cells = experiment: CellTiter-Glo luminescent cell viability assay; format: cell-based, human; conditions: for IC50: Homo sapiens
# Procedure: as §3, §4, §5, §6, §7, §8, §9, §10, §11, §12
# HCT 116 cells = experiment: CellTiter-Glo luminescent cell viability assay; format: cell-based, human; conditions: for IC50: Homo sapiens, HCT-116, 72 h, 72 h, read-out: IC50 inhibition of cancer cell proliferation
# Procedure: as §3, §4, §5, §6, §7, §8, §9, §10, §11, §12
# SW626 cells = experiment: CellTiter-Glo luminescent cell viability assay; format: cell-based, human; conditions: for IC50: Homo sapiens, SW626, 72 h, 72 h, read-out: IC50 inhibition of cancer cell proliferation
# Procedure: as §3, §4, §5, §6, §7, §8, §9, §10, §11, §12
# NCI-N87 cells = experiment: CellTiter-Glo luminescent cell viability assay; format: cell-based, human; conditions: for IC50: Homo sapiens, NCI-N87, 72 h, 72 h, read-out: IC50 inhibition of cancer cell proliferation
# Procedure: as §3, §4, §5, §6, §7, §8, §9, §10, §11, §12
# NK-92 cells = experiment: CellTiter-Glo luminescent cell viability assay; format: cell-based, human; conditions: for IC50: Homo sapiens
# Procedure: as §3, §4, §5, §6, §7, §8, §9, §10, §11, §12
# S. pneumoniae TIGR4Δfhs = experiment: Planktonic growth of S. pneumoniae fhs deletion mutant; format: cell-based, Streptococcus pneumoniae; conditions: S. pneumoniae fhs inactivated mutant; 0.25 μg/ml carolacton
# Procedure: as §1, §2
# [1] = HUVEC (primary), natural C, methanol
# [2] = HUVEC (primary), synthetic C, DMSO
# [3] = HUVEC (primary), synthetic C, methanol
smiles,measurement,setting,value
"CO[C@H](CC(=O)O)[C@@H](C)C(=O)[C@H](C)/C=C(\C)[C@H]1OC(=O)[C@H](O)[C@H](O)/C=C/[C@H](C)CCC[C@@H]1C [Carolacton, carolacton]",sensitivity of planktonic growth to carolacton,S. pneumoniae TIGR4ΔfoID,carolacton resistant
same,Bottom,HUVEC cells; [1],−4.548
same,Top,HUVEC cells; [1],=100.0
same,Bottom,HUVEC cells; [2],−7.188
same,Top,HUVEC cells; [2],=100.0
same,Bottom,HUVEC cells; [3],−3.312
same,Top,HUVEC cells; [3],=100.0
same,IC50,"HUVEC cells; 72 h, HUVEC (primary), natural C, methanol, 72 h, read-out: IC50 inhibition of cell proliferation",48300 nM
same,IC50,"HUVEC cells; 72 h, HUVEC (primary), synthetic C, DMSO, 72 h, read-out: IC50 inhibition of cell proliferation",103000 nM
same,IC50,"HUVEC cells; HUVEC cells, read-out: IC50",46400 nM
same,IC50,"U-937 cells; U-937, 72 h, U-937, natural C, methanol, 72 h, read-out: IC50 inhibition of cancer cell proliferation",10.7 nM
same,IC50,"U-937 cells; U-937, 72 h, U-937, synthetic C, DMSO, 72 h, read-out: IC50 inhibition of cancer cell proliferation",44.7 nM
same,IC50,"U-937 cells; U-937, 72 h, U-937, synthetic C, methanol, 72 h, read-out: IC50 inhibition of cancer cell proliferation",6.84 nM
same,IC50,"U-937 cells; U-937, Lymphoma cells (U-937), read-out: IC50 inhibition of proliferation",6.8 to 44.7 nM
same,Bottom,"U-937 cells; U-937, natural C, methanol",=0.0
same,Top,"U-937 cells; U-937, natural C, methanol",67.6
same,Bottom,"U-937 cells; U-937, synthetic C, DMSO",1.808
same,Top,"U-937 cells; U-937, synthetic C, DMSO",61.59
same,Bottom,"U-937 cells; U-937, synthetic C, methanol",0
same,Top,"U-937 cells; U-937, synthetic C, methanol",60.9
same,IC50,"HCT 116 cells; natural C, methanol",530 nM
same,IC50,"HCT 116 cells; synthetic C, DMSO",286 nM
same,IC50,"HCT 116 cells; synthetic C, methanol",521 nM
same,Bottom,"HCT 116 cells; natural C, methanol",−1.927
same,Top,"HCT 116 cells; natural C, methanol",43.89
same,Bottom,"HCT 116 cells; synthetic C, DMSO",−1.609
same,Top,"HCT 116 cells; synthetic C, DMSO",63.98
same,Bottom,"HCT 116 cells; synthetic C, methanol",−2.614
same,Top,"HCT 116 cells; synthetic C, methanol",63.68
same,IC50,"SW626 cells; natural C, methanol",365 nM
same,IC50,"SW626 cells; synthetic C, DMSO",908 nM
same,IC50,"SW626 cells; synthetic C, methanol",992 nM
same,Bottom,"SW626 cells; natural C, methanol",1.167
same,Top,"SW626 cells; natural C, methanol",42.81
same,Bottom,"SW626 cells; synthetic C, DMSO",5.588
same,Top,"SW626 cells; synthetic C, DMSO",43.17
same,Bottom,"SW626 cells; synthetic C, methanol",3.62
same,Top,"SW626 cells; synthetic C, methanol",47.2
same,IC50,"NCI-N87 cells; natural C, methanol",225 nM
same,IC50,"NCI-N87 cells; synthetic C, DMSO",> 100000 nM
same,IC50,"NCI-N87 cells; synthetic C, methanol",352 nM
same,Bottom,"NCI-N87 cells; natural C, methanol",11.93
same,Top,"NCI-N87 cells; natural C, methanol",41.34
same,Bottom,"NCI-N87 cells; synthetic C, methanol",6.683
same,Top,"NCI-N87 cells; synthetic C, methanol",23.87
same,IC50,"NK-92 cells; NK92, 72 h, NK-92, natural C, methanol, 72 h, read-out: IC50 inhibition of cancer cell proliferation",39.9 nM
same,IC50,"NK-92 cells; NK92, 72 h, NK-92, synthetic C, DMSO, 72 h, read-out: IC50 inhibition of cancer cell proliferation",> 100000 nM
same,IC50,"NK-92 cells; NK92, 72 h, read-out: IC50 inhibition of cancer cell proliferation, NK-92, synthetic C, methanal, 72 h",36.7 nM
same,IC50,"NK-92 cells; NK92, malignant NK-92 cells, read-out: IC50 inhibition of proliferation",37 to 39 nM
same,Bottom,"NK-92 cells; NK-92, natural C, methanol",−9.96
same,Top,"NK-92 cells; NK-92, natural C, methanol",91.08
same,Bottom,"NK-92 cells; NK-92, synthetic C, methanal",1.208
same,Top,"NK-92 cells; NK-92, synthetic C, methanal",91.05
same,inhibition of planktonic growth,S. pneumoniae TIGR4Δfhs,complete inhibition
